“And” between values parts separate entries of the source, which are not always exact repeats. Equal entries are not always repeated. Marks after values point to notes of the source that are not given here.
How the values were obtained:
[1] = pulsating bubble technique ("bubble assay" of Enhorning, Enhorning Surfactometer); type: physicochemical; details: for Pressure Gradient 15″: 15 seconds; for Pressure Gradient 15″ / Pressure Gradient 1′ / Pressure Gradient 5′: peptide 10% by weight of PL, 37° C., negative pressure, mean of 3; for Pressure Gradient 1′: 1 minute; for Pressure Gradient 5′: 5 minutes
Protocol: Measurements of surface pressure across an air-liquid interface (expressed in negative cm of H2O pressure) at minimal (γmin) bubble radius were determined at various times using the pulsating bubble technique described by Enhorning, J. Appl. Physiol. 43: 198-203 (1977).
Briefly, the Enhorning Surfactometer (Surfactometer International, Toronto, Ontario) measures the pressure gradient (ΔP) across a liquid-air interface of a bubble that pulsates at a rate of 20 cycles/min between a maximal (0.55 mm) and minimal (0.4 mm) radius. The bubble, formed in a 37° C., water-enclosed, 20-μl sample chamber, is monitored through a microscopic optic while the pressure changes are recorded on a strip chart recorder calibrated for 0 and −2 cm H2O.
Each of the surfactants identified in Table 5 was assayed for surfactant activity as evidenced by their ability to reduce surface tension in vitro using the “bubble assay” of Enhorning as described above.
After admixture with solvent, each peptide was admixed with phospholipids (PL), DPPC:PG, 3:1, in chloroform in a glass tube so that the amount of polypeptide added equaled one-tenth (10% by. weight) of the amount of PL added, to form a surfactant according to either method A, B or C.
Each of the surfactants was then assayed for surfactant activity as evidenced by their ability to reduce surface tension in vitro in the bubble assay performed as described above. The pressure gradient (ΔP) is a measure of surfactant activity in the polypeptide-PL third admixture which was determined using an Enhorning Surfactometer as described above. Measurements were obtained at time points of 15 seconds (15″), 1 minute (1′) and 5 minutes (5′) and are expressed as a mean of three independent measurements of the indicated polypeptide-PL admixture.

[2] = observation whether peptide/solvent admixture formed a solution or a suspension; type: physicochemical
Protocol: Each polypeptide was admixed with the indicated solvent at a concentration of 2.5 mg of polypeptide per ml of solvent. […] Those admixtures forming a suspension were further admixed by water bath sonication for 10 seconds to form a very fine suspension, sufficient for pipetting using glass pipettes.

fetal rabbit lung = assay: dynamic compliance, fetal rabbit model; type: in vivo; details: single animal per line
Protocol: A subject polypeptide was first admixed with solvent as described in Example 3. […]
Surfactant was instilled in rabbit fetal lung by injection into the trachea from a single syringe of the following three components such that the components exit the syringe in the following order: (1) 0.05 ml air; (2) 0.1 ml of a synthetic surfactant prepared in Example 4A or either 2 mg of PL or 2 mg of native surfactant; and (3) 0.1 ml air.
From one syringe, a 0.1 ml aliquot of synthetic surfactant prepared as described in Example 4A (or 2 mg of NS or of PL), was instilled into the rabbit trachea as described above, followed by injection of 0.05 ml lactated Ringer's Solution and 0.2 ml air from a second syringe.
From one syringe, 0.1 ml of a synthetic surfactant prepared as described in Example 4A (or 2 mg of NS or of PL), 0.15 ml air, 0.1 ml saline, and 0.3 ml air were injected into the trachea as described above. Two subsequent aliquots of 0.3 ml air were given.
The surfactant activity of exemplary polypeptides of this invention was studied using the methods described in detail previously by Revak, et al, Am. Rev. Respir. Dis. 134: […] (1986), with the exceptions noted hereinbelow.
Twenty-seven day gestation fetal rabbits were delivered by hysterotomy and immediately injected with 0.05 ml Norcuron (Organon, Inc., N.J.) to prevent spontaneous breathing. The fetal rabbits were then weighed and a small cannula was inserted into the trachea by tracheotomy surfactant prepared as described above was then instilled into the fetal rabbit lung by one of the above instillation protocols.
Following instillation the rabbit was placed in a specially designed plethysmograph (containing a Celesco transducer) connected to a ventilator (Baby Bird, Baby Bird Corp., Palm Springs, Calif.) and the instilled lung was ventilated at a rate of 30 cycles per minute with a peak inspiratory pressure of 25 cm H2O, a positive end expiratory pressure of 4 cm H2O and an inspiratory time of 0.5 seconds. In some studies, dynamic compliance measurements were made at various times throughout the ventilation procedure. In others, static compliance measurements were made following ventilation.
Using the plethysmograph, dynamic compliance measurements were made at various times throughout a 60 minute ventilation period. […] Compliance was calculated by the formula below. [formula]
The above equation was solved with a multiple linear regression for C and R. The compliance (C) represents the elastic nature of the lungs and the resistance (R) represents the pressure necessary to overcome the resistance to the flow of gas into and out of the lungs.

[3] = 2.5 μg of peptide per μl of solvent, solvent H2O
[4] = 2.5 mg of polypeptide per ml of solvent, solvent 75% chloroform 25% methanol

Substance: RRLLLLLLLRRLLLLLLLRRL [RL7]
- Pressure Gradient 15″ ([1]; PL (DPPC:PG 3:1) 4 mg/ml): 1.65 cm of H2O
- Pressure Gradient 1′ ([1]; PL (DPPC:PG 3:1) 4 mg/ml): 1.25 cm of H2O
- Pressure Gradient 5′ ([1]; PL (DPPC:PG 3:1) 4 mg/ml): 1.00 cm of H2O
- Admixture Formed ([2]; 2.5 mg of polypeptide per ml of solvent, solvent 49% chloroform 51% methanol): solution

Substance: LPQLVCRLVLRCSMDD [p66-81]
- Pressure Gradient 15″ ([1]; PL (DPPC:PG 3:1) 4 mg/ml): 1.22 cm of H2O
- Pressure Gradient 1′ ([1]; PL (DPPC:PG 3:1) 4 mg/ml): 1.11 cm of H2O
- Pressure Gradient 5′ ([1]; PL (DPPC:PG 3:1) 4 mg/ml): 0.84 cm of H2O
- Admixture Formed ([2]; 2.5 μg of peptide per μl of solvent, solvent methanol:H2O): suspension
- Admixture Formed ([2]; 2.5 mg of polypeptide per ml of solvent, solvent 40% DMF 60% chloroform): suspension

Substance: DTLLGRMLPQLVCRLVLRCSMDD [p59-81]
- Pressure Gradient 15″ ([1]; PL (DPPC:PG 3:1) 4 mg/ml): 1.08 cm of H2O
- Pressure Gradient 1′ ([1]; PL (DPPC:PG 3:1) 4 mg/ml): 1.02 cm of H2O
- Pressure Gradient 5′ ([1]; PL (DPPC:PG 3:1) 4 mg/ml): 0.75 cm of H2O
- Admixture Formed ([2]; 2.5 mg of polypeptide per ml of solvent, solvent 68% chloroform 32% methanol): solution

Substance: ERYSVILLDTLLGRMLPQLVCRLVLRCSMDD [p51-81]
- Pressure Gradient 15″ ([1]; PL (DPPC:PG 3:1) 10 mg/ml): 0.94 cm of H2O
- Pressure Gradient 1′ ([1]; PL (DPPC:PG 3:1) 10 mg/ml): 0.86 cm of H2O
- Pressure Gradient 5′ ([1]; PL (DPPC:PG 3:1) 10 mg/ml): 0.64 cm of H2O
- Admixture Formed ([2]; 2.5 mg of polypeptide per ml of solvent, solvent 50% chloroform 50% methanol): suspension

Substance: CQCLAERYSVILLDTLLGRMLPQLVCRLVLR [p46-76]
- Pressure Gradient 15″ ([1]; PL (DPPC:PG 3:1) 10 mg/ml): 0.90 cm of H2O
- Pressure Gradient 1′ ([1]; PL (DPPC:PG 3:1) 10 mg/ml): 0.80 cm of H2O
- Pressure Gradient 5′ ([1]; PL (DPPC:PG 3:1) 10 mg/ml): 0.62 cm of H2O
- Admixture Formed ([2]; 2.5 mg of polypeptide per ml of solvent, solvent 64% chloroform 36% methanol): solution

Substance: RVVPLVAGGICQCLAERYSVILLDTLLGRMLPQLVCRLVLRCSMDD [p36-81]
- Pressure Gradient 15″ ([1]; PL (DPPC:PG 3:1) 10 mg/ml): 0.90 cm of H2O
- Pressure Gradient 1′ ([1]; PL (DPPC:PG 3:1) 10 mg/ml): 0.87 cm of H2O
- Pressure Gradient 5′ ([1]; PL (DPPC:PG 3:1) 10 mg/ml): 0.79 cm of H2O
- Admixture Formed ([2]; 2.5 mg of polypeptide per ml of solvent, solvent 50% chloroform 0% methanol): suspension
- Dynamic Compliance, 30 minutes after surfactant instillation (fetal rabbit lung; 5% peptide to PL, Protocol 3): 255 ml air/cm H2O (g body weight × 10^6) and 245 ml air/cm H2O (g body weight × 10^6)
- Dynamic Compliance, 60 minutes after surfactant instillation (fetal rabbit lung; 5% peptide to PL, Protocol 3): 146* ml air/cm H2O (g body weight × 10^6) and 291 ml air/cm H2O (g body weight × 10^6)
- Dynamic Compliance, 30 minutes after surfactant instillation (fetal rabbit lung; 10% peptide to PL, Protocol 2): 154 ml air/cm H2O (g body weight × 10^6) and 252 ml air/cm H2O (g body weight × 10^6)
- Dynamic Compliance, 60 minutes after surfactant instillation (fetal rabbit lung; 10% peptide to PL, Protocol 2): 1,162 ml air/cm H2O (g body weight × 10^6) and 623 ml air/cm H2O (g body weight × 10^6)

Substance: VAQVCRVVPLVAGGI [p31-45]
- Admixture Formed [2, 3]: solution

Substance: C RLVLRCSMDD (N-terminal Cys) [p71-81]
- Admixture Formed [2, 3]: suspension

Substance: MIPKGALAVAVAQVC [p21-35]
- Admixture Formed ([2]; 2.5 μg of peptide per μl of solvent, solvent Chloroform): suspension

Substance: p74-81: eight amino acid residue control peptide, residues 74-81 of SEQ ID NO 12 (SP18), does not conform to the teachings of the invention (VLRCSMDD) [reference compound]
- Pressure Gradient 15″ ([1]; PL (DPPC:PG 3:1) 4 mg/ml): 2.37 cm of H2O
- Pressure Gradient 1′ ([1]; PL (DPPC:PG 3:1) 4 mg/ml): 2.32 cm of H2O
- Pressure Gradient 5′ ([1]; PL (DPPC:PG 3:1) 4 mg/ml): 2.31 cm of H2O
- surfactant activity compared with the phospholipids alone ([1]; peptide admixed with phospholipids (DPPC:PG 3:1), bubble assay): did not form a PS having a greater activity than the phospholipid alone
- Admixture Formed [2, 3]: solution
- Admixture Formed ([2]; 2.5 mg of polypeptide per ml of solvent, solvent water): solution

Substance: SVILLDTLLGRMLPQLVCR [p54-72]
- Pressure Gradient 15″ ([1]; PL (DPPC:PG 3:1) 10 mg/ml): 1.28 cm of H2O
- Pressure Gradient 1′ ([1]; PL (DPPC:PG 3:1) 10 mg/ml): 0.92 cm of H2O
- Pressure Gradient 5′ ([1]; PL (DPPC:PG 3:1) 10 mg/ml): 0.38 cm of H2O
- Admixture Formed ([2]; 2.5 mg of polypeptide per ml of solvent, solvent 76% chloroform 24% methanol): suspension

Substance: VAGGICQCLAERYSV [p41-55]
- Admixture Formed [2, 3]: solution

Substance: ERYSVILLDTLLGRM [p51-65]
- Admixture Formed [2, 3]: suspension

Substance: RLLLLRLLLLRLLLLRLLLLR [RL4]
- Pressure Gradient 15″ ([1]; PL (DPPC:PG 3:1) 4 mg/ml): 0.58 cm of H2O
- Pressure Gradient 1′ ([1]; PL (DPPC:PG 3:1) 4 mg/ml): 0.65 cm of H2O
- Pressure Gradient 5′ ([1]; PL (DPPC:PG 3:1) 4 mg/ml): 0.33 cm of H2O
- Admixture Formed ([2]; 2.5 mg of polypeptide per ml of solvent, solvent 32% chloroform 68% methanoi): solution

Substance: RLLLLCLLLRLLLLCLLLR [RCL-1]
- Pressure Gradient 15″ ([1]; PL (DPPC:PG 3:1) 10 mg/ml): 0.50 cm of H2O
- Pressure Gradient 1′ ([1]; PL (DPPC:PG 3:1) 10 mg/ml): 0.59 cm of H2O
- Pressure Gradient 5′ ([1]; PL (DPPC:PG 3:1) 10 mg/ml): 0.06 cm of H2O
- Admixture Formed ([2]; 2.5 mg of polypeptide per ml of solvent, solvent 79% chloroform 21% methanol): suspension

Substance: RLLLLCLLLRLLLLCLLLRLLLLCLLLR [RCL-3]
- Pressure Gradient 15″ ([1]; PL (DPPC:PG 3:1) 10 mg/ml): 0.55 cm of H2O
- Pressure Gradient 1′ ([1]; PL (DPPC:PG 3:1) 10 mg/ml): 0.51 cm of H2O
- Pressure Gradient 5′ ([1]; PL (DPPC:PG 3:1) 10 mg/ml): 0.33 cm of H2O
- Admixture Formed [2, 4]: suspension

Substance: CRALIKRIQAMIPKG [p11-25]
- Admixture Formed [2, 3]: solution

Substance: ERYSVILLDTLLGRMLPQLVCR [p51-72]
- Pressure Gradient 15″ ([1]; PL (DPPC:PG 3:1) 10 mg/ml): 1.15 cm of H2O
- Pressure Gradient 1′ ([1]; PL (DPPC:PG 3:1) 10 mg/ml): 0.76 cm of H2O
- Pressure Gradient 5′ ([1]; PL (DPPC:PG 3:1) 10 mg/ml): 0.33 cm of H2O
- Admixture Formed [2, 4]: suspension

Substance: SVILLDTLLGRMLPQLVCRLVLR [p54-76]
- Pressure Gradient 15″ ([1]; PL (DPPC:PG 3:1) 10 mg/ml): 0.92 cm of H2O
- Pressure Gradient 1′ ([1]; PL (DPPC:PG 3:1) 10 mg/ml): 0.82 cm of H2O
- Pressure Gradient 5′ ([1]; PL (DPPC:PG 3:1) 10 mg/ml): 0.23 cm of H2O
- Admixture Formed ([2]; 2.5 mg of polypeptide per ml of solvent, solvent 71% chloroform 24% methanol): suspension

Substance: RLLLLCLLLRLLLLCLLLRLL [RCL-2]
- Pressure Gradient 15″ ([1]; PL (DPPC:PG 3:1) 10 mg/ml): 0.00 cm of H2O
- Pressure Gradient 1′ ([1]; PL (DPPC:PG 3:1) 10 mg/ml): 0.00 cm of H2O
- Pressure Gradient 5′ ([1]; PL (DPPC:PG 3:1) 10 mg/ml): 0.00 cm of H2O
- Admixture Formed ([2]; 2.5 mg of polypeptide per ml of solvent, solvent 67% chloroform 33% methanol): suspention

Substance: LLGRMLPQLVCRLVL [p61-75]
- Admixture Formed ([2]; 2.5 μg of peptide per μl of solvent, solvent methanol): suspension

Substance: RLLLLLLLLRLLLLLLLLRLL [RL8]
- Pressure Gradient 15″ ([1]; PL (DPPC:PG 3:1) 10 mg/ml): 0.68 cm of H2O
- Pressure Gradient 1′ ([1]; PL (DPPC:PG 3:1) 10 mg/ml): 0.69 cm of H2O
- Pressure Gradient 5′ ([1]; PL (DPPC:PG 3:1) 10 mg/ml): 0.19 cm of H2O
- Admixture Formed ([2]; 2.5 mg of polypeptide per ml of solvent, solvent 19% chloroform 81% methanol): suspension
